# Results as given in the supplement of paper PMC4862054.
# Key:
# Experiment in all cases: normalised response (% of control), CellTiter-Glo; higher = more viable cells (100 = DMSO, 0 = benzethonium chloride kill control)
# Details in all cases: incubation time: 72 h
# [1] = tested on: BT-474
# How it was run: (§1)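 For each plate, 0.1 % DMSO was set to 100 and a positive kill control to 0. Breast cancer cell lines (20 µl suspension) were seeded into 384-well plates already holding compound at 5 concentrations in 10-fold steps over a 10,000-fold range chosen per compound, and incubated for 72 h. CellTox Green fluorescence at 485/520 nm was read before CellTiter-Glo luminescence, which followed 10 min at room temperature. Each value is the normalised signal at one concentration.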
# [2] = tested on: BT-549
# How it was run: as §1
# [3] = tested on: CAL-120
# How it was run: as §1
# [4] = tested on: CAL-148
# How it was run: as §1
# [5] = tested on: CAL-51
# How it was run: as §1
# [6] = tested on: CAL-85-1
# How it was run: as §1
# [7] = tested on: DU-4475
# How it was run: as §1
# [8] = tested on: HCC1143
# How it was run: as §1
# [9] = tested on: HCC1599
# How it was run: as §1
# [10] = tested on: HCC1937
# How it was run: as §1
# [11] = tested on: HDQ-P1
# How it was run: as §1
# [12] = tested on: Hs578T
# How it was run: as §1
# [13] = tested on: MCF-10A
# How it was run: as §1
# [14] = tested on: MDA-MB-231
# How it was run: as §1
# [15] = tested on: MDA-MB-436
# How it was run: as §1
# [16] = tested on: MDA-MB-453
# How it was run: as §1
# [17] = tested on: MDA-MB-468
# How it was run: as §1
# [18] = tested on: MFM-223
# How it was run: as §1
# [19] = tested on: SK-BR-3
# How it was run: as §1
Compound,normalised response [1],normalised response [2],normalised response [3],normalised response [4],normalised response [5],normalised response [6],normalised response [7],normalised response [8],normalised response [9],normalised response [10],normalised response [11],normalised response [12],normalised response [13],normalised response [14],normalised response [15],normalised response [16],normalised response [17],normalised response [18],normalised response [19]
C=C(c1ccc(C(=O)O)cc1)c1cc2c(cc1C)C(C)(C)CCC2(C)C [Bexarotene] (1000 nM),87.8%,102%,104%,86.4%,111%,102%,103%,102%,57.6%,102%,104%,94.9%,81.8%,106%,99.4%,103%,103%,102%,80%
N[C@@H](CSC(c1ccccc1)(c1ccccc1)c1ccccc1)C(=O)O [S-trityl-L-cysteine] (4000 nM),102%,98.6%,102%,97.6%,87.3%,99.8%,91.1%,94%,109%,97.3%,99.5%,99.2%,96.3%,105%,100%,103%,105%,101%,94.3%
COc1cc2nccc(Oc3ccc(NC(=O)C4(C(=O)Nc5ccc(F)cc5)CC4)cc3)c2cc1OC [Cabozantinib] (100 nM),87.7%,96.5%,101%,98.1%,109%,93.6%,99.6%,92.2%,117%,95.6%,97.6%,103%,88.6%,90.5%,99.2%,106%,96.7%,98.7%,104%
Clc1ccc(Nc2nnc(Cc3ccncc3)c3ccccc23)cc1 [Vatalanib] (1000 nM),95.2%,100%,99.2%,98.7%,94.4%,97.7%,106%,97%,124%,103%,109%,100%,103%,105%,106%,95.4%,103%,104%,104%
Cn1c(Nc2ccc(C(F)(F)F)cc2)nc2cc(Oc3ccnc(-c4ncc(C(F)(F)F)[nH]4)c3)ccc21 [RAF265] (100 nM),99.3%,91.1%,82.9%,97.1%,77.8%,98.5%,95.3%,95.9%,120%,91.6%,75%,82.5%,91.4%,104%,89.8%,110%,85.5%,96.5%,92%
CCC1=C[C@@H]2CN(C1)Cc1c([nH]c3ccccc13)[C@@](C(=O)OC)(c1cc3c(cc1OC)N(C)[C@H]1[C@@](O)(C(=O)OC)[C@H](OC(C)=O)[C@]4(CC)C=CCN5CC[C@]31[C@@H]54)C2 [Vinorelbine] (1000 nM),55.7%,41.8%,66.9%,43.2%,26.7%,39%,69.9%,56.9%,26%,73.8%,76.2%,35.5%,63%,43.5%,24.7%,56.1%,30.3%,39.3%,16.9%
CO[C@H]1/C=C\C=C(/C)C(=O)NC2=CC(=O)C(NCCN(C)C)=C(C[C@@H](C)C[C@H](OC)[C@H](O)[C@@H](C)/C=C(\C)[C@@H]1OC(N)=O)C2=O [Alvespimycin] (100 nM),36.1%,33.7%,52%,23.9%,26.7%,23%,0.07%,35.4%,76.9%,36.5%,31.3%,41.8%,13.5%,26.5%,46.6%,25.8%,39.6%,39.9%,44.1%
O=C1CCC(N2C(=O)c3ccccc3C2=O)C(=O)N1 (stereo not given) [Thalidomide] (1000 nM),102%,96.3%,101%,96%,120%,94.5%,100%,95.9%,114%,98%,101%,107%,102%,95.8%,99.1%,102%,106%,93.8%,99.4%
O=P1(NCCCl)OCCCN1CCCl (stereo not given) [Ifosfamide] (1000 nM),93.3%,96.1%,91.4%,89%,105%,96.8%,90.6%,94.7%,96.1%,97.7%,104%,97.8%,95.6%,88.3%,91.3%,92.5%,90.9%,92.5%,92%
Cn1c(CCCC(=O)O)nc2cc(N(CCCl)CCCl)ccc21 [Bendamustine] (1000 nM),101%,92.4%,104%,110%,112%,101%,101%,106%,105%,95.7%,102%,106%,96.9%,106%,101%,117%,117%,111%,107%
COc1cc([C@@H]2c3cc4c(cc3[C@@H](O[C@@H]3O[C@@H]5CO[C@@H](C)O[C@H]5[C@H](O)[C@H]3O)[C@H]3COC(=O)[C@H]23)OCO4)cc(OC)c1O [Etoposide] (1000 nM),93.2%,76.7%,93.3%,69%,65.7%,101%,56.8%,86.2%,63.5%,94%,97.6%,91%,99.8%,94.7%,67%,153%,87.3%,114%,67.7%
CN[C@@H]1C[C@H]2O[C@@](C)([C@@H]1OC)n1c3ccccc3c3c4c(c5c6ccccc6n2c5c31)C(=O)N[C@H]4O [UCN-01] (1000 nM),12.4%,17.8%,20.5%,75.2%,11.8%,23.2%,7.33%,17.3%,8.97%,32%,18.8%,11.7%,1.2%,7.91%,27.5%,34%,5.24%,30.2%,22.3%
Cc1ccc(-n2nc(C(C)(C)C)cc2NC(=O)Nc2ccc(OCCN3CCOCC3)c3ccccc23)cc1 [Doramapimod] (1000 nM),86.1%,99.6%,101%,80.3%,111%,121%,96%,95.2%,108%,95.1%,89.1%,97%,89.1%,83.7%,105%,85.8%,87.5%,87.6%,80.8%
C#Cc1cccc(Nc2ncnc3cc(OCCOC)c(OCCOC)cc23)c1 [Erlotinib] (1000 nM),96.3%,100%,93.5%,82.1%,80.3%,60.2%,104%,94.7%,100%,93.4%,69.3%,99.8%,37.1%,102%,99.9%,107%,82.9%,100%,97.5%
CCC1(c2ccc(N)cc2)CCC(=O)NC1=O (stereo not given) [Aminoglutethimide] (1000 nM),100%,94.7%,105%,96.2%,80.4%,103%,101%,97.6%,115%,96.8%,97%,101%,101%,105%,102%,100%,105%,101%,95.6%
CN(C)/N=N/c1[nH]cnc1C(N)=O [Dacarbazine] (1000 nM),101%,101%,96%,97.8%,91.2%,100%,101%,103%,111%,101%,95.4%,105%,104%,105%,101%,104%,117%,105%,102%
CC1(C)NC(=O)N(c2ccc([N+](=O)[O-])c(C(F)(F)F)c2)C1=O [Nilutamide] (1000 nM),99.8%,91.2%,102%,109%,82.4%,98.5%,105%,101%,110%,103%,97.7%,113%,111%,102%,106%,102%,119%,107%,110%
CNCc1ccc(-c2[nH]c3cc(F)cc4c3c2CCNC4=O)cc1 [Rucaparib] (1000 nM),92.3%,100%,105%,95.3%,106%,110%,97.6%,94.1%,94.4%,105%,98.8%,107%,101%,99%,88.8%,100%,93.5%,96.3%,86.7%
Cc1ccc(C(=O)Nc2ccc(CN3CCN(C)CC3)c(C(F)(F)F)c2)cc1C#Cc1cnc2cccnn12 [Ponatinib] (100 nM),93%,107%,86.3%,99.6%,112%,105%,99.3%,97.6%,117%,97.2%,92.1%,96.5%,103%,91.4%,97%,110%,120%,54.5%,107%
CN(N=O)C(=O)N[C@@H](C=O)[C@@H](O)[C@H](O)[C@H](O)CO [Streptozocin] (1000 nM),107%,98.2%,105%,100%,107%,104%,100%,112%,107%,108%,107%,109%,109%,106%,98.3%,109%,104%,103%,100%
